These results are taken from PubChem BioAssay AID1845208 (Molecular Pharmacology Branch, DTP, NCI, 2023).

For orientation: viability, T/C means the result in the treated group divided by that in the control group, in per cent. As usually defined, the IC50 is the midpoint of a concentration-inhibition curve.

The assay concerns NCI-H196 SCLC complex tumor spheroid viability. Briefly: Anticancer human tumor NCI-H196 cell line growth inhibition.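 For IC50: spheroids exposed to compounds for 7 days before readout.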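 For viability, T/C: spheroids exposed to compounds for 7 days before readout; 100% = DMSO vehicle control wells.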 The conditions noted are these: for viability, T/C: stronger effect = lower value. From the text: Multicellular complex tumor spheroid response to DNA repair inhibitors in combination with DNA-damaging drugs
This study explores the anticancer activities of DNA-damaging drugs and inhibitors of DNA damage repair, both as single agents and in combinations. Complex tumor spheroids comprised of malignant cells, endothelial cells and mesenchymal stem cells served as an in vitro model for human solid tumors. This model system incorporates physiologically relevant features and patient-derived or established malignant cell lines with clinically relevant genetic alterations from many tumor types. Twenty-six patient-derived or established malignant cell lines were evaluated representing sarcoma, melanoma, small cell lung cancer (SCLC), non-small cell lung cancer (NSCLC), as well as bladder, ovarian and pancreatic cancers. The concentration ranges selected for each drug and investigational agent were based upon clinically achievable concentrations if the clinical Cmax of the agent was known.
Compounds. The drugs and compounds olaparib (NSC753686), talazoparib (NSC767125), berzosertib (NSC777718), elimusertib (NSC800525), nedisertib (NSC802822), VX-984 (NSC792969), AZD-1390 (NSC803789), temozolomide (NSC362856), topotecan (NSC609699), trabectedin (NSC813783), staurosporine (NSC755774), and gemcitabine (NSC613327) were obtained from the National Cancer Institute (NCI) Developmental Therapeutics Program Chemical Repository. The FDA-approved anticancer drug set is available from the Developmental Therapeutics Program at https://dtp.cancer.gov/organization/dscb/obtaining/available_plates.htm. […] The stock solutions were prepared in dimethyl sulfoxide (DMSO, Sigma-Aldrich, St. Louis, MO, cat. D2650) at 400-fold the tested concentration and stored at -70 degrees C. Prior to their use, the stock solutions were diluted in fresh medium and the final DMSO concentration in the assay was 0.25% (v/v). All drugs and investigational agents were tested over a range starting from a high concentration at or near the clinical Cmax and decreasing in half-log increments. If the clinical Cmax for an agent had not been determined, the highest concentration tested was 10 microM.
Cell Lines. The patient-derived cancer cell (PDC) lines: 156681-154-R-J1-PDC, 283228-195-R-J1-PDC, 287954-098-R-J1-PDC, 292921-168-R-J2-PDC, 349418-098-R-PDC, 425362-245-T-J1-PDC, 556581-035-R-J1-PDC, and BL0293-F563-PDC were received from the NCI Patient-Derived Models Repository (PDMR, https://pdmr.cancer.gov). The established cell lines HS-SY-2 (RRID:CVCL_8719), MPNST, and SYO-1 (RRID:CVCL_7146) were obtained from the Sloan Kettering Institute. The alveolar soft parts sarcoma cell line ASPS-1 (RRID:CVCL_S738) was established at the NCI and grown from internal seed stocks. The following established cell lines were purchased from the American Type Culture Collection (ATCC, Manassas, VA): G-401 (ATCC, cat. CRL-1441, RRID:CVCL_0270), SW982 (ATCC, cat. HTB-93, RRID:CVCL_1734), VA-ES-BJ (ATCC, cat. CRL-2138, RRID:CVCL_1785), NCI-H719 (ATCC, cat. CRL-5837, RRID:CVCL_1582), NCI-H196 (ATCC, cat. CRL-5823, RRID:CVCL_1509), NCI-H841 (ATCC, cat. CRL-5845, RRID:CVCL_1595), NCI-H1618 (ATCC, cat. CRL-5879, RRID:CVCL_1480), NCI-H1876 (ATCC, cat. CRL-5902, RRID:CVCL_1503), DMS 114 (ATCC, cat. CRL-2066; RRID:CVCL_1174), NCI-H211 (ATCC, cat. CRL-5824; RRID:CVCL_1529), and SW 1271 (ATCC, cat. CRL-2177, RRID:CVCL_1716). The small cell lung cancer cell line COR-L88 was purchased from Sigma-Aldrich (cat. 92031917-1VL, RRID:CVCL_1141). The non-small cell lung cancer cell lines NCI-H226 (RRID:CVCL_1544) and NCI-H322M (RRID:CVCL_1557) were established at the NCI and grown from internal seed stocks. Pooled donor human umbilical vein endothelial cells (HUVEC, Lonza, cat. CC-2519) and human mesenchymal stem cells (hMSC, Lonza, cat. PT-2501) were purchased from Lonza (Walkersville, MD).
Cell Culture. All cells were maintained in an incubator at 37 degrees C and 5% CO2 with 95% humidity. […]

The mark [1] stands for this setting: compound alone, run of 11/07/2019.
Setting [2] is: compound alone, run of 12/16/2019.

“And” between values parts separate entries of the source, which are not always exact repeats. Equal values may be shown once. The source made the active and inactive calls. Rule for the calls: active = viability on the fitted dose curve at most 10% of control; inactive = the rest. A value given as a limit tells only on which side of the number the result lay.

Take `CC(C)n1c(=O)n(C)c2cnc3cc(F)c(-c4ccc(OCCCN5CCCCC5)nc4)cc3c21`: the viability, T/C (compound 0.0316 µM) is 102% (2×) and 93.8%; the viability, T/C (compound 0.1 µM) was 106% and 97.1% and 100%; the viability, T/C (compound 0.316 µM) was 105% and 95.7% and 95.9%; the viability, T/C (compound 1 µM) was 108% and 102% and 105%; the viability, T/C (compound 3.16 µM) was 113% and 112% and 110%; the viability, T/C (compound 10 µM) was 108% and 110% and 111%. Also, the 50% inhibitory concentration (IC50) (curve of compound) was more than 10 µM.
With `CC1COCCN1c1cc(-c2ccnn2C)c2ccnc(-c3ccn[nH]3)c2n1` (centres undefined), the viability, T/C (compound 0.0316 µM) was 85.4% and 90.9% and 88.6%; the viability, T/C (compound 0.1 µM) is 76.7% and 72.3% and 79.4%; the viability, T/C (compound 0.316 µM) was 65.1% and 66% and 67.1%; the viability, T/C (compound 1 µM) is 60.3% and 53.1% and 61.3%; the viability, T/C (compound 3.16 µM) is 53% (2×) and 49.1%; the viability, T/C (compound 10 µM) was 44.3% and 46.2% and 48.6%. In addition, the IC50 (curve of compound) is 4.36 µM and 2.77 µM and 7.31 µM.
As to `CC[C@@]1(O)C(=O)OCc2c1cc1n(c2=O)Cc2cc3c(CN(C)C)c(O)ccc3nc2-1`, the viability, T/C by setting is: (compound 0.003 µM) 101% [middle of 10 runs]; (compound 0.00949 µM) 99.5% [middle of 10 runs]; (compound 0.03 µM) 95.5% [middle of 10 runs]; (compound 0.0949 µM) 102% [middle of 10 runs]; (compound 0.3 µM) 105% [middle of 10 runs]. For the same molecule, the half-inhibitory concentration (IC50) was more than 0.3 µM under setting [1] and more than 0.3 µM under setting [2].
In the case of `CNCc1ccc(-c2cc(-c3nc(-c4ccc(S(=O)(=O)C(C)C)cc4)cnc3N)on2)cc1`, the viability, T/C was 101% and 97.8% and 106% (compound 0.00949 µM); 108% and 111% and 109% (compound 0.03 µM); 98% and 119% and 105% (compound 0.0949 µM); 106% and 107% and 101% (compound 0.3 µM); 95% and 98.1% and 96.3% (compound 0.949 µM); 88.5% and 83.7% and 94% (compound 3 µM). Further, where the note is “curve of compound”, the IC50 is more than 3 µM.
For `COc1cc(C)[nH]c(=O)c1CN1CCc2c(Cl)cc(C(OC)C3COC3)c(Cl)c2C1=O` (centres undefined), the viability, T/C is 93.9% and 96.1% and 106% (compound 0.0316 µM); 101% (2×) and 102% (compound 0.1 µM); 92.7% and 96% and 91.1% (compound 0.316 µM); 101% and 94.2% and 103% (compound 1 µM); 97.1% and 89.7% and 101% (compound 3.16 µM); 94.5% and 97.7% and 100% (compound 10 µM). In addition, the IC50 (curve of compound) is more than 10 µM.
Turning to `COc1cc2c(cc1O)CCNC21CSC2c3c(OC(C)=O)c(C)c4c(c3C(COC1=O)N1C(O)C3Cc5cc(C)c(OC)c(O)c5C(C21)N3C)OCO4` (centres undefined), the viability, T/C by setting is: (compound 30 pM) 103% [middle of 10 runs]; (compound 94.9 pM) 105% [middle of 10 runs]; (compound 0.0003 µM) 103% [middle of 10 runs]; (compound 0.000949 µM) 84.7% [middle of 10 runs]; (compound 0.003 µM) 7.79% [middle of 10 runs]. In addition, under setting [2], the concentration for half-maximal inhibition (IC50) is 1.62 nM [middle of 8 runs].
As for `COc1ccc([C@@H](O)c2cc(-c3ncnc4cc(N5CCOCC5)ccc34)c(F)cc2Cl)nn1`, the viability, T/C was 96.5% and 98.3% and 102% (compound 0.0316 µM); 101% and 94.9% and 98.9% (compound 0.1 µM); 89.8% and 87.1% and 95.5% (compound 0.316 µM); 78.1% and 80.4% (compound 1 µM); 65% and 69% and 75.8% (compound 3.16 µM); 49.7% and 56.2% and 59.8% (compound 10 µM). For the same molecule, the outcome (compound 1 µM) was inactive. The IC50 (curve of compound) was more than 10 µM.
Turning to `Cc1cc(C)c(CNC(=O)c2cc(-c3ccc(CN4CCOCC4)cc3)cc3c2cnn3C2CCCC2)c(=O)[nH]1`, the viability, T/C reads like this: (compound 0.0316 µM) 104% and 97.2% and 99.1%; (compound 0.1 µM) 96.1% and 97.9% and 103%; (compound 0.316 µM) 93.3% and 97% and 102%; (compound 1 µM) 91.3% and 96.2% and 98.9%; (compound 3.16 µM) 101% and 94% and 103%; (compound 10 µM) 106% and 103% and 111%. For the setting “curve of compound”, the IC50 was more than 10 µM.
As for `Cc1sc2c(c1C)C(c1ccc(Cl)cc1)=NC(CC(=O)Nc1ccc(O)cc1)c1nnc(C)n1-2` (centres undefined), the viability, T/C is, setting by setting: (compound 0.00949 µM) 102% and 106% and 98%; (compound 0.03 µM) 101% and 108% and 93.3%; (compound 0.0949 µM) 91.3% and 94.5% and 91.4%; (compound 0.3 µM) 85.1% and 78% and 76.3%; (compound 0.949 µM) 41.5% and 43.1% and 38.3%; (compound 3 µM) 23% and 23.8% and 20.7%. The IC50 (curve of compound) is 0.763 µM and 0.77 µM and 0.666 µM.
Turning to `Cn1ncnc1[C@H]1c2n[nH]c(=O)c3cc(F)cc(c23)N[C@@H]1c1ccc(F)cc1`, the viability, T/C (compound 0.00949 µM) is 108% and 104% and 101%; the viability, T/C (compound 0.03 µM) is 102% and 96.7% and 99%; the viability, T/C (compound 0.0949 µM) is 103% and 98.2% and 102%; the viability, T/C (compound 0.3 µM) was 102% and 98.1% and 100%; the viability, T/C (compound 0.949 µM) was 104% and 96.5% and 89.3%; the viability, T/C (compound 3 µM) was 108% and 92% and 87.2%. For the same molecule, under “curve of compound”, the half-inhibitory concentration (IC50) was more than 3 µM.
Turning to `Cn1nnc2c(C(N)=O)ncn2c1=O`, the viability, T/C by setting is: (compound 1 µM) 95.3% [middle of 10 runs]; (compound 3.16 µM) 101% [middle of 10 runs]; (compound 10 µM) 104% [middle of 10 runs]; (compound 31.6 µM) 107% [middle of 10 runs]. Moreover, under setting [1], the concentration for half-maximal inhibition (IC50) is more than 100 µM.
For the molecule `O=C(c1cc(Cc2n[nH]c(=O)c3ccccc23)ccc1F)N1CCN(C(=O)C2CC2)CC1`, the viability, T/C was 99.6% and 102% and 108% (compound 0.0949 µM); 100% and 93.2% and 96% (compound 0.3 µM); 90.1% and 99.8% and 99.6% (compound 0.949 µM); 98.9% and 93.9% and 98.2% (compound 3 µM); 92.9% and 89.8% and 95.1% (compound 9.49 µM); 85.1% (2×) and 69.1% (compound 30 µM). The IC50 (curve of compound) is more than 30 µM.
For `[2H]c1nc(C)nc([2H])c1-c1cc(NC[C@@H](C)c2cccc3c(C(=O)NC)ccnc23)ncn1`, the viability, T/C reads like this: (compound 0.0316 µM) 104% and 105% and 99.6%; (compound 0.1 µM) 102% and 99.5% and 104%; (compound 0.316 µM) 98.1% and 106% and 96.8%; (compound 1 µM) 99.2% and 106% and 97.2%; (compound 3.16 µM) 103% and 99.3% and 102%; (compound 10 µM) 103% and 107% and 104%. Further, the IC50 (curve of compound) is more than 10 µM.
